Experimental data: article PMC6884575, “Suppression of FOXM1 activities and breast cancer growth in vitro and in vivo by a new class of compounds” (NPJ Breast Cancer, 2019)

How the values were obtained:
[1] = Pharmacokinetics in mice after single s.c. or oral dose; type: in vivo, female CD1 mice; conditions: for AUC / Cmax / half-life: female, CD1, mouse, single dose, plasma
FOXM1 = target: T1, FOXM1 (Homo sapiens, UniProt Q08050); experiment: tr-FRET competitive binding assay with Fl-NB-72 probe; design: we attached a terbium donor to purified, full length FOXM1 through a streptavidin-biotin linker; conditions: calculated from IC50 values; Supplementary Table 1; read-out: Ki, affinity for binding to FOXM1 protein
T1 sequence (Q08050 1-763): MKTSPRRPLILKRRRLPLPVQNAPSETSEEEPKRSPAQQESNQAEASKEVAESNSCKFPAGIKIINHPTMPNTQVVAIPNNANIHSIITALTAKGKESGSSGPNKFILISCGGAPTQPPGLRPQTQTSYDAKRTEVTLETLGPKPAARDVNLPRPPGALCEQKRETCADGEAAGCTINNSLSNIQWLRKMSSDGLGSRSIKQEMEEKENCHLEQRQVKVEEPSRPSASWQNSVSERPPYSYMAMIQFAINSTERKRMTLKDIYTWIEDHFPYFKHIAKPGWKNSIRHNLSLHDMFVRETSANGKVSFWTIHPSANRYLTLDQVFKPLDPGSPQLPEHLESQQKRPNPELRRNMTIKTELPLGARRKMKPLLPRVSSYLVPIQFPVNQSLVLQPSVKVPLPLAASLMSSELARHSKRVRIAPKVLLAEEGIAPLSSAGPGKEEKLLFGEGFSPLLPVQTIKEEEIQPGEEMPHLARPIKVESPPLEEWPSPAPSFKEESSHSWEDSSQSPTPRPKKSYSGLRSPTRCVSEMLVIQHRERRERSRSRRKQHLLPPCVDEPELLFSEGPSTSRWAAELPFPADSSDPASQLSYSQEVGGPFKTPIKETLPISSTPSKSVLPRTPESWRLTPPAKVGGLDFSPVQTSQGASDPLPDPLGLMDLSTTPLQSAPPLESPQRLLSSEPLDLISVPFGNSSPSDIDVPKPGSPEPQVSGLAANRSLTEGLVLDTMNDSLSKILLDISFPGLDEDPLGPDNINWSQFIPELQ
Method: Competitive binding assays of compound binding to FOXM1 by tr-FRET were done in FRET buffer (20 mM Tris, pH 7.5, 50 mM NaCl, 0.01% NP-40 detergent, 10% glycerol) with 0.3 mg/ml ovalbumin and 0.1 mM butylated hydroxy-anisole added fresh daily. Solutions of the protein, fluorescent probe and compound dilutions were prepared at 3× concentrations, the final dilution taking place as they were mixed together in equal portions on the microtiter plate.
Final concentrations were 10^−5 M to 10^−9 M, with the last point being buffer only, no compound. Fluorescein-NB-72 (Fl-NB- 72) was prepared at 1 mM in DMF and stored at −20 °C. It was diluted into FRET buffer to give 100 nM in the assay. Incubations were done in duplicate on black Molecular Devices 96-well microtiter plates. 5 μl of Fl-NB-72 and 5 μl of the compound dilutions, were mixed together on the plate. To this was added 5 µl biotin-FoxM1 and incubated in the dark at room temperature, for 1 h. […] To correct for background signals, biotin-FOXM1 was omitted, and diffusion-enhanced FRET incubations were done in duplicate on black Molecular Devices 96-well microtiter plates. Five microliter of Fl-NB-72 and 5 μl of the compound solutions were mixed together and then 5 µl of FRET buffer plus SaTb was added, mixed and incubated in the dark at room temperature, for 1 h. The tr-FRET signals measured as above were subtracted as a background from the first incubations that contained biotin-FOXM1. Graphs were prepared using Graph Pad/Prism 4.

[2] = system: FOXM1 target gene expression in MCF7 cells; experiment: FOXM1 target gene expression by qRT-PCR; type: cell-based, human; conditions: MCF7, 24 h, compound at its IC50 for proliferation
Method: Total RNA was isolated using TRIzol (Invitrogen) and reverse transcribed using […] reverse transcriptase (New England BioLabs). Real-time PCR was performed using SYBRgreen PCR Master Mix (Quantabio) as described.[15] Relative mRNA levels of genes were normalized to the housekeeping gene 36B4, and fold-change calculated relative to the vehicle treated samples. Results are the average ± SD from at least two independent experiments carried out in triplicate. Primer sequences for the genes studied were obtained from the Harvard Primer Bank. Sequences are available on their website.

[3] = system: DT22 breast tumor xenografts; experiment: DT22 human breast tumor xenograft growth in NSG mice; type: in vivo; conditions: for tumor growth in vivo: low doses (2–20 mg/kg) s.c. daily or every other day; for animal body weight / growth of tumor xenografts: low doses s.c.: NB-115 2 or 6 mg/kg daily, NB-63 20 mg/kg daily then 10 mg/kg every other day from day 20; for tumor growth: DT22 tumors, NSG mice, s.c., 20 mg/kg every other day for 10 days then 10 mg/kg every other day
Method: For examination of the effects of compounds on breast tumor growth suppression, intact female NOD/SCID-gamma (NSG) mice were used as detailed previously.[39] DT-22 breast cancer cells (1 × 10^6 cells/mouse) were injected s.c. into the right axial mammary gland. Mice received s.c. injection or oral gavage daily or every second or third day as indicated, with vehicle or treatment compound, and tumor volume (length × width^2/2) was monitored over time.

[4] = system: tamoxifen-resistant MCF7 breast cancer cells; experiment: Proliferation of tamoxifen-resistant MCF7 cells; type: cell-based, human; conditions: 6 days, cell numbers
Method: resistant MCF7 cells. Cells were treated with NB-73 or trans-hydroxytamoxifen (OH-
Tam) for 6 days and cell numbers were monitored. Values are mean ± SD of three
(1 picture or pasted object on this page, not shown here)

[5] = system: DT22 cells and MCF7 cells; experiment: Cell proliferation in DT22 and MCF7 cells; type: cell-based, human; conditions: 3 days
Method: WST-1 assay (Roche, Basel, Switzerland) was used to quantify cell viability as described.[38] […] All assays were performed in triplicate and analyzed using Graph Pad Prism 8.0.

| Structure (SMILES) | Cmax ([1]; oral, 40 mg/kg) [nM] | Ki (FOXM1) [nM] | AUC ([1]; oral, 60 mg/kg) [µM·h] | Cmax ([1]; oral, 60 mg/kg) [nM] | AUC ([1]; sc, 60 mg/kg) [µM·h] | Cmax ([1]; sc, 60 mg/kg) [nM] | half-life ([1]; oral, 60 mg/kg) [h] | half-life ([1]; sc, 60 mg/kg) [h] | blood levels of compound ([1]; after oral administration) | blood levels of compound ([1]; after s.c. injection) | tumor growth in vivo [3] | other results |
| --- | --- | --- | --- | --- | --- | --- | --- | --- | --- | --- | --- | --- |
| CCN(CC)CCCCCCOc1ccc(C(c2ccc(OCCCCCCN(CC)CC)cc2)=C2[C@H]3C[C@@H]4C[C@@H](C[C@H]2C4)C3)cc1 [NB-51] | 110 | 130 | – | – | – | – | – | – | – | – | – | AUC ([1]; oral, 40 mg/kg): 1.81 µM·h; half-life ([1]; oral, 40 mg/kg): 20.1 h; AUC ([1]; sc, 20 mg/kg): 4.73 µM·h; Cmax ([1]; sc, 20 mg/kg): 180 nM; half-life ([1]; sc, 20 mg/kg): 61.8 h |
| c1cc(C(=C2C3CC4CC(C3)CC2C4)c2ccc(OCCCCCCN3CCCC3)cc2)ccc1OCCCCCCN1CCCC1 [NB-65] | – | 190 | 3.23 | 80 | 14.8 | 580 | – | – | – | – | – | – |
| CC[N+](C)(CC)CCCCCCOc1ccc(C(=C2C3CC4CC(C3)CC2C4)c2ccc(OCCCCCC[N+](C)(CC)CC)cc2)cc1 [NB-115] | 100 | – | – | – | – | – | – | – | – | – | greatly suppress tumor growth | expression of ATF3, a gene suppressed by FOXM1 [2]: increased expression of ATF3; expression of FOXM1 stimulated target genes (FOXM1C, AURKB, CCNB1, PLK1) [2]: significantly reduced the expression; AUC ([1]; sc, 40 mg/kg): 746 µM·h; Cmax ([1]; sc, 40 mg/kg): 34700 nM; half-life ([1]; sc, 40 mg/kg): 38.6 h; animal body weight [3]: little impact on animal body weight; growth of tumor xenografts [3]: effective in suppressing the growth of tumor xenografts |
| CC/C(=C(\c1ccc(O)cc1)c1ccc(OCCN(C)C)cc1)c1ccccc1 [trans-hydroxytamoxifen, reference compound] | – | – | – | – | – | – | – | – | – | – | – | proliferation of tamoxifen-resistant MCF7 cells [4]: weakly stimulated |
| C[N+]1(CCCCCCOc2ccc(C(c3ccc(Cl)cc3)=C3C4C[C@H]5C[C@@H](C4)C[C@H]3C5)cc2)CCCC1 [NB-63] | 400 | – | – | – | – | – | – | – | only very low levels | very high blood levels | greatly suppress tumor growth | relative potency in suppressing cell proliferation [5]: potencies very similar to those of their parent amine compounds; AUC ([1]; oral, 40 mg/kg): 1.67 µM·h; half-life ([1]; oral, 40 mg/kg): 5.8 h; AUC ([1]; sc, 40 mg/kg): 158 µM·h; Cmax ([1]; sc, 40 mg/kg): 5010 nM; half-life ([1]; sc, 40 mg/kg): 31.5 h; animal body weight [3]: little impact on animal body weight; growth of tumor xenografts [3]: effective in suppressing the growth of tumor xenografts |
| c1cc(C(=C2C3CC4CC(C3)CC2C4)c2ccc(OCCCCCCN3CCCCCC3)cc2)ccc1OCCCCCCN1CCCCCC1 [NB-72] | – | – | 11.3 | 320 | 15.9 | 370 | 60.6 | 302 | – | – | – | – |

Second part, led by results:

| Cmax ([1]; oral, 40 mg/kg) [nM] | Ki (FOXM1) [nM] | AUC ([1]; oral, 60 mg/kg) [µM·h] | Cmax ([1]; oral, 60 mg/kg) [nM] | AUC ([1]; sc, 60 mg/kg) [µM·h] | Cmax ([1]; sc, 60 mg/kg) [nM] | half-life ([1]; oral, 60 mg/kg) [h] | half-life ([1]; sc, 60 mg/kg) [h] | blood levels of compound ([1]; after oral administration) | blood levels of compound ([1]; after s.c. injection) | Structure (SMILES) | tumor growth in vivo [3] | other results |
| --- | --- | --- | --- | --- | --- | --- | --- | --- | --- | --- | --- | --- |
| – | – | 8.32 | 220 | 10.2 | 270 | 51.2 | 222 | – | – | c1cc(C(c2ccc(OCCCCCCN3CCCCC3)cc2)=C2[C@H]3C[C@@H]4C[C@@H](C[C@H]2C4)C3)ccc1OCCCCCCN1CCCCC1 [NB-70] | – | – |
| – | – | 0.08 | 30 | 198 | 9520 | – | 33.2 | only very low levels | very high blood levels | C[N+]1(CCCCCCOc2ccc(C(=C3C4CC5CC(C4)CC3C5)c3ccc(OCCCCCC[N+]4(C)CCCCC4)cc3)cc2)CCCCC1 [NB-71] | greatly suppress tumor growth | tumor growth [3]: greatly suppress tumor growth |
| – | 51 | 0.29 | 71 | 127 | 7120 | 6.2 | 23.7 | only very low levels | very high blood levels | C[N+]1(CCCCCCOc2ccc(C(=C3C4CC5CC(C4)CC3C5)c3ccc(OCCCCCC[N+]4(C)CCCC4)cc3)cc2)CCCC1 [NB-68] | greatly suppress tumor growth | relative potency in suppressing cell proliferation [5]: potencies very similar to those of their parent amine compounds; tumor growth [3]: greatly suppress tumor growth |
